According to patent publication US10716753B2, “Compositions for pulmonary delivery of long-acting muscarinic antagonists or long-acting B2 adrenergic receptor agonists and associated methods and systems” (priority 2009, dated 2020):

How the values were obtained:
[1] = tested on: patients with mild to moderate COPD; assay: Multi-center crossover clinical trial, single administration: FEV1 spirometry; format: in vivo, human; conditions: all doses of Glycopyrrolate MDI; tiotropium 18 μg
[2] = Aerosol performance by Next Generation Impactor, USP <601> (fine particle fraction, MMAD); format: physicochemical
Procedure: A Next Generation Impactor (NGI) operated at a flow rate of 30 L/min was used for determination of particle size distribution. Sample canisters were seated into an actuator with two waste actuations and two additional waste priming actuations. Five actuations were collected in the NGI with a USP throat attached. The valve, actuator, throat, NGI cups, stages, and filter were rinsed with volumetrically dispensed solvent. The sample solutions were assayed using a drug specific chromatographic method. The fine particle fraction was defined using the sum of stages 3 through filter. […] Inhalers were seated and primed as described before. Two actuations were collected and assayed at beginning, middle and end of use.
A Next Generation Impactor (NGI) operated at a flow rate of 30 L/min was used for determination of particle size distribution. Sample canisters were seated into an actuator with two waste actuations and two additional waste priming actuations. Five actuations were collected in the NGI with a USP throat attached. The valve, actuator, throat, NGI cups, stages, and filter were rinsed with volumetrically dispensed solvent. The sample solutions were assayed using a drug specific chromatographic method. The fine particle fraction was defined using the sum of stages 3 through filter. […] Two actuations were collected and assayed at beginning, middle and end of use.
A Next Generation Impactor (NGI) operated at a flow rate of 30 L/min was used for determination of particle size distribution. Sample canisters were seated into an actuator with two waste actuations and two additional waste priming actuations. Five actuations were collected in the NGI with a USP throat attached. The valve, actuator, throat, NGI cups, stages, and filter were rinsed with volumetrically dispensed solvent. The sample solutions were assayed using a drug specific chromatographic method. The fine particle fraction was defined using the sum of stages 3 through filter.

[3] = Visual observation of suspension quality / co-suspension in glass vials, incl. centrifugation; format: physicochemical; conditions: glass vials heated to 30° C.-35° C.
Excerpt: Exemplary methods for assessing whether a co-suspension is present can include the following: If one particle type has a pycnometric density greater than the propellant and another particle type has a pycnometric density lower than the propellant, a visual observation of the creaming or sedimentation behavior can be employed to determine the presence of a co-suspension. The term “pycnometric density” refers to the density of a material that makes up a particle, excluding voids within the particle. In one embodiment, the materials can be formulated or transferred into a transparent vial, typically a glass vial, for visual observation. After initial agitation the vial is left undisturbed for a sufficient time for formation of a sediment or cream layer, typically 24 hours. If the sediment or cream layer is observed to be completely or mostly a uniform single layer, a co-suspension is present.
Metered dose inhalers were prepared by weighing the target masses of micronized GP particles and suspending particles into fluorinated ethylene polymer (FEP) coated aluminum canisters (Presspart, Blackburn, UK) with 19 mL volume. […]

[4] = co-suspension MDI: 2 mg SX, 60 mg suspending particles, 10 mL HFA 134a

## C[N+]1(C)[C@@H]2C[C@@H](OC(=O)C(O)(c3cccs3)c3cccs3)C[C@H]1[C@@H]1O[C@@H]12 [tiotropium]
[1]
  Mean time to ≥10% improvement in FEV1: approximately 3 hour

## OCc1cc(C(O)CNCCCCCCOCCCCc2ccccc2)ccc1O (stereo not drawn) [SX, 4-hydroxy-α1-[[[6-(4-phenylbutoxy)hexyl]amino]methyl]-1,3-benzenedimethanol, 1-hydroxy-2-naphthalenecarboxylate]
[2]; [4]
  Fine particle fraction: 48%
  MMAD: 3.7 μm
[3]
  Visual observation of active agent particles formulated alone: sedimented rapidly
  Visual observation of co-suspension vial: no SX crystals were visible at the bottom

## C[N+]1(C)CCC(OC(=O)C(O)(c2ccccc2)C2CCCC2)C1.[Br-] (stereo not drawn) [glycopyrrolate, Pyrrolidinium, 3-((cyclopentylhydroxyphenylacetyl)oxy)-1,1-dimethyl-, bromide]
[2]; 24 μg per actuation co-suspension MDI, initially
  Fine particle fraction: 59.3%
